Results published in article PMC6572064, “Discovery of 2-(1-(3-(4-Chloroxyphenyl)-3-oxo- propyl)pyrrolidine-3-yl)-1H-benzo[d]imidazole-4-carboxamide: A Potent Poly(ADP-ribose) Polymerase (PARP) Inhibitor for Treatment of Cancer” (Molecules, 2019).
Where two headings read alike, the source gives them in different places.

Columns and labels:
[1] = system: CAPAN-1 (a BRCA-2-mutated pancreatic cancer cell line); test: Cell proliferation assay, three-day, CellTiter-Glo, CAPAN-1; assay type: cell-based; details: for IC50 / inhibition at 0.00508 µM / inhibition at 0.0152 µM / inhibition at 0.0457 µM / inhibition at […] / inhibition at 0.41 µM / inhibition at 1.23 µM / inhibition at 3.7 µM / inhibition at 11.11 µM / inhibition at 33.33 µM / inhibition at 100 µM: Homo sapiens; for inhibition at 0.00508 µM: CAPAN-1, 0.00508 uM; for inhibition at 0.0152 µM: CAPAN-1, 0.0152 uM; for inhibition at 0.0457 µM: CAPAN-1, 0.0457 uM; for inhibition at […]: CAPAN-1, 0.14 uM; for inhibition at 0.41 µM: CAPAN-1, 0.41 uM; for inhibition at 1.23 µM: CAPAN-1, 1.23 uM; for inhibition at 3.7 µM: CAPAN-1, 3.70 uM; for inhibition at 11.11 µM: CAPAN-1, 11.11 uM; for inhibition at 33.33 µM: CAPAN-1, 33.33 uM; for inhibition at 100 µM: CAPAN-1, 100.00 uM
Summary of the method: (§1)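 Luminescent ATP read-out (CellTiter-Glo, 60 min at room temperature) quantified viability after a 72 h compound exposure at 37 °C, 5% CO2. Compounds, diluted from DMSO stocks into growth medium, were added to cells plated the previous day.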

[2] = target: T1, PARP-2 (Homo sapiens, UniProt Q9UGN5); test: PARP-2 inhibition assay (PARP-2 Chemiluminescent Assay Kit, BPS Bioscience); assay type: biochemical; details: for inhibition at 0.01 µM: 10 nM compound
T1 construct: purchased BPS Bioscience 80552
T1 sequence (Q9UGN5 whole entry): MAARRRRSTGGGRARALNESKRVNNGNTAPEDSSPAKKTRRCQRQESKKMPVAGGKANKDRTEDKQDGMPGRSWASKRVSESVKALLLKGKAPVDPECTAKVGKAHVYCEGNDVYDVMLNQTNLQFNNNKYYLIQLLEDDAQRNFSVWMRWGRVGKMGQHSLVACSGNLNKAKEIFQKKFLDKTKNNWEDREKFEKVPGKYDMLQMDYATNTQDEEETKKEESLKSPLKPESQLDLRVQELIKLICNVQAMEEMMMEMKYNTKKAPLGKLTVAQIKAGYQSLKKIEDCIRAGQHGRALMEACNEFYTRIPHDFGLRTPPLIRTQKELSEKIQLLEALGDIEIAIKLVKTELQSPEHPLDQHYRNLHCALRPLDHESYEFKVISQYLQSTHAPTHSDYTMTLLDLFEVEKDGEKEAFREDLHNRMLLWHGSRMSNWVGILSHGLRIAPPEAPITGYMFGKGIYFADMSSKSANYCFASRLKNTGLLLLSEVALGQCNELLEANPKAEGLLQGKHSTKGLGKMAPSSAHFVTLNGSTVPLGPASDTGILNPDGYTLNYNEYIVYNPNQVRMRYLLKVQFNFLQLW
Description: (§2) The PARP-1 and PARP-2 inhibition assays were performed in outsourcing, by a CRO company, Shanghai Medicilon Inc. (Shanghai, China). […] Briefly, PARP-1 or PARP-2 biotinylated substrate was incubated with compounds or solvent control at varying concentrations and an assay buffer containing the PARP-1 or PARP-2 enzyme.

[3] = system: MDA-MB-436 (a BRCA-1-mutated breast cancer cell line); test: Cell proliferation assay, three-day, CellTiter-Glo, MDA-MB-436; assay type: cell-based; details: for inhibition at 0.00508 µM / inhibition at 0.0152 µM / inhibition at 0.0457 µM / inhibition at 0.41 µM / inhibition at 1.23 µM / inhibition at 3.7 µM / inhibition at 11.11 µM / inhibition at 33.33 µM / inhibition at 100 µM / IC50: Homo sapiens; for inhibition at 0.00508 µM: MDA-MB-436, MDA-MB-436, Conc. 0.00508 uM; for inhibition at 0.0152 µM: MDA-MB-436, MDA-MB-436, Conc. 0.0152 uM; for inhibition at 0.0457 µM: MDA-MB-436, MDA-MB-436, Conc. 0.0457 uM; for inhibition at 0.41 µM: MDA-MB-436, MDA-MB-436, Conc. 0.41 uM; for inhibition at 1.23 µM: MDA-MB-436, MDA-MB-436, Conc. 1.23 uM; for inhibition at 3.7 µM: MDA-MB-436, MDA-MB-436, Conc. 3.70 uM; for inhibition at 11.11 µM: MDA-MB-436, MDA-MB-436, Conc. 11.11 uM; for inhibition at 33.33 µM: MDA-MB-436, MDA-MB-436, Conc. 33.33 uM; for inhibition at 100 µM: MDA-MB-436, MDA-MB-436, Conc. 100.00 uM
Summary of the method: as §1

[4] = target: T2, PARP-1 (Homo sapiens, UniProt P09874); test: PARP-1 inhibition assay (PARP-1 Chemiluminescent Assay Kit, BPS Bioscience); assay type: biochemical; details: for inhibition at 0.01 µM: 10 nM compound
T2 construct: purchased BPS Bioscience 80569
T2 sequence (P09874 whole entry): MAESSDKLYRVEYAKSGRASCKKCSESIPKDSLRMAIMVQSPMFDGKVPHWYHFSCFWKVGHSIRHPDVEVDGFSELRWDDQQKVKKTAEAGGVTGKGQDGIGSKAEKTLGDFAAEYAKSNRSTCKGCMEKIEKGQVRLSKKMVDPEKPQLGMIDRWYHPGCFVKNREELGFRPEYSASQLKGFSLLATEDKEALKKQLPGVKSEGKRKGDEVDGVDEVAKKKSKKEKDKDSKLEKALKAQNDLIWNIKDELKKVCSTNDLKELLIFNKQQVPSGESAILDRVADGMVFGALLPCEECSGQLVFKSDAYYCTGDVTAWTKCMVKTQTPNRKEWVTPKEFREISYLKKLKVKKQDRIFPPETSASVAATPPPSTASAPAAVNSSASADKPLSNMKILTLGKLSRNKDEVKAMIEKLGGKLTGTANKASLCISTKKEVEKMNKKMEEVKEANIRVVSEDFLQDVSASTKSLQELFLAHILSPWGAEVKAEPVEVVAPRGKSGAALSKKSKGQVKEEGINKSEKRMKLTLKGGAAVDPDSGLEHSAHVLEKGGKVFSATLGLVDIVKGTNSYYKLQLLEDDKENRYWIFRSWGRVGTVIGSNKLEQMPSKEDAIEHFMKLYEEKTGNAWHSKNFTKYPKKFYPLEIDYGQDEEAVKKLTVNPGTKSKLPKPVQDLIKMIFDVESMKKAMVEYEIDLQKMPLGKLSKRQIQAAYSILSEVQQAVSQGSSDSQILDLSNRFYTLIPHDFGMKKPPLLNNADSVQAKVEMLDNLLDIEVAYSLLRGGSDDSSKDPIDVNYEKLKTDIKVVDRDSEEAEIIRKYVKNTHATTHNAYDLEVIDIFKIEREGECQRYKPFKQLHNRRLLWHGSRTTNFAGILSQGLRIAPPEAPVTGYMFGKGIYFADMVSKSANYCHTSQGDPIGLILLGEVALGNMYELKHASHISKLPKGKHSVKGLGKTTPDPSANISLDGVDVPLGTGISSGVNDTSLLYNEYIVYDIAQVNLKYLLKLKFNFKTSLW
Description: as §2

IC50 ([1]; CAPAN-1, 72 h, CellTiter-Glo, read-out: CAPAN-1 IC50): 11.4 µM
IC50 ([1]; CAPAN-1, 72 h, supplement Summary sheet, read-out: IC50): 11.4 µM
IC50 ([1]; CAPAN-1, curve-fit output, concentrations in uM, read-out: IC50): 11.4 µM
inhibition at 0.01 µM ([2]; supplement sheet, read-out: 10 nM inhibition% PAPR-2): 65.5%
inhibition at 0.01 µM ([2]; read-out: PARP-2 Inhibition % (10 nM)): 65.6%
IC50 ([2]; read-out: PARP-2 IC50): 0.0042 µM
IC50 ([2]; supplement sheet, read-out: IC50 PAPR-2): 0.00422 µM
IC50 ([3]; MDA-MB-436, 72 h, CellTiter-Glo, read-out: MDA-MB-436 IC50): 17.4 µM
IC50 ([3]; MDA-MB-436, 72 h, supplement Summary sheet, read-out: IC50): 17.4 µM
IC50 ([3]; MDA-MB-436, curve fit list, no unit in the cell, concentration in uM, read-out: IC50): 17.4 µM
inhibition at 0.01 µM ([4]; supplement sheet, read-out: 10 nM inhibition% PAPR-1): 65.7%
inhibition at 0.01 µM ([4]; read-out: PARP-1 Inhibition % (10 nM)): 65.7%
IC50 ([4]; read-out: PARP-1 IC50): 0.0039 µM
IC50 ([4]; supplement sheet, read-out: IC50 PAPR-1): 0.00389 µM
Structure (SMILES): NC(=O)c1cccc2[nH]c(C3CCN(CCC(=O)c4ccc(Cl)cc4)C3)nc12 (centres unmarked) [Compound 5cj]
LogIC50 ([1]; CAPAN-1, curve-fit output, Log (uM)): 1.057
inhibition at 0.00508 µM ([1]; replicate 1, read-out: Inh % 1): 9.5%
inhibition at 0.00508 µM ([1]; replicate 2, read-out: Inh % 2): -1.4%
inhibition at 0.0152 µM ([1]; replicate 1, read-out: Inh % 1): 3.1%
inhibition at 0.0152 µM ([1]; replicate 2, read-out: Inh % 2): -2.2%
inhibition at 0.0457 µM ([1]; replicate 1, read-out: Inh % 1): 3.3%
inhibition at 0.0457 µM ([1]; replicate 2, read-out: Inh % 2): 3.4%
inhibition at […] ([1]; replicate 1, read-out: Inh % 1): 13.7%
inhibition at […] ([1]; replicate 2, read-out: Inh % 2): -6.2%
inhibition at 0.41 µM ([1]; replicate 1, read-out: Inh % 1): 2.9%
inhibition at 0.41 µM ([1]; replicate 2, read-out: Inh % 2): 7.7%
inhibition at 1.23 µM ([1]; replicate 1, read-out: Inh % 1): -2.6%
inhibition at 1.23 µM ([1]; replicate 2, read-out: Inh % 2): 0.5%
inhibition at 3.7 µM ([1]; replicate 1, read-out: Inh % 1): 7.7%
inhibition at 3.7 µM ([1]; replicate 2, read-out: Inh % 2): 2.2%
inhibition at 11.11 µM ([1]; replicate 1, read-out: Inh % 1): 54.1%
inhibition at 11.11 µM ([1]; replicate 2, read-out: Inh % 2): 45.1%
inhibition at 33.33 µM ([1]; replicate 1, read-out: Inh % 1): 97.9%
inhibition at 33.33 µM ([1]; replicate 2, read-out: Inh % 2): 96.8%
inhibition at 100 µM ([1]; replicate 1, read-out: Inh % 1): 99.6%
inhibition at 100 µM ([1]; replicate 2, read-out: Inh % 2): 98.9%
inhibition at 0.00508 µM ([3]; replicate 1, read-out: Inh % 1): -7.9%
inhibition at 0.00508 µM ([3]; replicate 2, read-out: Inh % 2): -1.6%
inhibition at 0.0152 µM ([3]; replicate 1, read-out: Inh % 1): -3%
inhibition at 0.0152 µM ([3]; replicate 2, read-out: Inh % 2): -9.8%
inhibition at 0.0457 µM ([3]; replicate 1, read-out: Inh % 1): -14.2%
inhibition at 0.0457 µM ([3]; replicate 2, read-out: Inh % 2): -14.3%
inhibition at 0.41 µM ([3]; replicate 1, read-out: Inh % 1): -16.8%
inhibition at 0.41 µM ([3]; replicate 2, read-out: Inh % 2): -14.6%
inhibition at 1.23 µM ([3]; replicate 1, read-out: Inh % 1): -8.7%
inhibition at 1.23 µM ([3]; replicate 2, read-out: Inh % 2): -14.5%
inhibition at 3.7 µM ([3]; replicate 1, read-out: Inh % 1): -10.6%
inhibition at 3.7 µM ([3]; replicate 2, read-out: Inh % 2): -13.6%
inhibition at 11.11 µM ([3]; replicate 1, read-out: Inh % 1): 10.8%
inhibition at 11.11 µM ([3]; replicate 2, read-out: Inh % 2): 8.2%
inhibition at 33.33 µM ([3]; replicate 1, read-out: Inh % 1): 93.8%
inhibition at 33.33 µM ([3]; replicate 2, read-out: Inh % 2): 82.1%
inhibition at 100 µM ([3]; replicate 1, read-out: Inh % 1): 99.7%
inhibition at 100 µM ([3]; replicate 2, read-out: Inh % 2): 98.9%
LogIC50 ([3]; MDA-MB-436, curve fit on Log (uM) concentrations): 1.241
Bottom ([3]; MDA-MB-436, curve fit parameter (Inh %)): -11.12
Top ([3]; MDA-MB-436, curve fit parameter (Inh %), '= 100.0' is a constrained value): 99.53
